{
  "source": "paper PMC5430962",
  "about": "“Retro-inverso Urokinase Receptor Antagonists for the Treatment of Metastatic Sarcomas” (Scientific Reports, 2017)",
  "key": {"Sarc cells": {"test_system": "Sarc cells", "assay": "Growth, vascularization and circulating tumor cells of subcutaneous Sarc tumors in nude mice", "format": "in vivo, Foxn1nu/nu female nude mice", "settings": "6 mg/Kg i.p. every day for 10 days", "procedure": "(§1) To evaluate the effect of RI-3 on tumor growth and vascularization, Sarc cells were injected, as a single-cell suspension (1 × 10^6 cells in 100 µl of sterile PBS, 97% viability), subcutaneously in the flanks of sixteen six-eight weeks old, Foxn1nu/nu female nude mice (Harlan). Animals were randomized into two 8-mice groups with the treatment group receiving 6 mg/kg RI-3 by intra-peritoneal injection every 24 hr, and the control group receiving an equivalent injected volume of vehicle (PBS) only. Time-dependent average weight was monitored every two days. The length and the width of tumors were measured at different time points with a calliper and volumes were calculated using the formula: ½ × (width)[2] × length (mm). After 10 days, blood samples (at least 500 µL/mouse) from the retro-orbital venous plexus of mice anesthetized with 1% isoflurane were collected using a heparinized capillary tube and processed for determination of the Circulating Tumor Cells (CTCs). Then, the animals were sacrificed, the excised tumors were fixed in buffered formalin and processed for paraffin sectioning. Tumor vascularization was assessed by counting vascular channels harbouring red blood cells on CD31 immuno-stained sections in 5 randomly chosen fields per section, in at least two sections per tumor at x 200 as described. Two additional experiments were carried out with the same experimental design by injecting GFP-tagged Sarc cells (1 × 10^6 cells/mouse) subcutaneously in the flanks of twenty-five six-eight weeks old, Foxn1nu/nu female nude mice (Harlan). Animals were treated with 6 mg/kg RI-3, 6 mg/kg RERF or vehicle by intra-peritoneal injection every 24 hr for 10 or 12 days. Tumor growth and the appearance of positive tumor lesions near tumors and in lungs were monitored as brightly visualized by GFP fluorescence with a MacroFluo fluorescence stereomicroscope (Leica). We searched for the presence of GFP-positive nodules on the entire surface of freshly isolated lungs. Lungs were also sliced at approximately 3-mm thickness to examine the parenchyma in depth, and the positive nodules were acquired at higher magnification.\nTo quantify CTCs, DNA from nucleated cells of murine blood samples (500 μl/mouse) was extracted using the QIAamp DNA Mini Kit (Qiagen), according to the manufacturer’s protocol. Quantitative RT-PCR (7900 HT Fast Real-Time PCR System, Applied Biosystems) was performed using 18 ng DNA and the SYBR Select Master Mix (Applied Biosystems) as described. Primers to human Alu-sequences [FW 5′-[…]-3′/RV 5′-CCCAGGCTGGAGTGCAGT-3′] were employed to a final concentration of 0.5 μM. The number of CTCs was calculated by comparing the obtained Ct with a standard amplification curve generated in spiking experiments (1 to 50 cells were collected by pipetting under microscopic control) which were included in every run. DNA from murine blood was included as a negative control."}, "FPR1": {"molecular_target": "T1, FPR1 (Homo sapiens, UniProt P21462)", "T1 construct": "expressed in transfected cells; host or cells: rat basophilic leukaemia RBL-2H3/ETFR cells (gift of F. Blasi)", "T1 sequence (P21462 1-350)": "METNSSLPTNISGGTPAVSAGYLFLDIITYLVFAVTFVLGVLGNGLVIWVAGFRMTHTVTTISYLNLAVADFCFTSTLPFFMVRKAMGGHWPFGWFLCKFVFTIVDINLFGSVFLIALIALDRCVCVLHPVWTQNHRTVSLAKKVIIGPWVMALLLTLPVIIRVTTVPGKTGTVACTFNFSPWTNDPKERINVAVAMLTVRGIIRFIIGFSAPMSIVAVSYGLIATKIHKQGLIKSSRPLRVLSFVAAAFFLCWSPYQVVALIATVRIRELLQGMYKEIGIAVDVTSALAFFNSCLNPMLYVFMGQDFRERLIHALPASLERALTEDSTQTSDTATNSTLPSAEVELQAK", "assay": "Ligand binding assay: FITC-fMLF binding to RBL-2H3/ETFR cells", "settings": "100 nM unlabeled peptide 60 min at 4 °C, then 10 nM FITC-fMLF 60 min at 4 °C; fluorescence plate reader", "procedure": "RBL-2H3 cells, RBL-2H3/ETFR cells stably expressing FPR1 (1.5 × 10^6 cells/sample) were pre-incubated with diluents or the indicated unlabeled peptides for 60 min at 4 °C, extensively rinsed with phosphate buffer saline (PBS), exposed to 10 nM FITC-fMLF (Molecular Probes) in PBS for additional 60 min at 4 °C and again rinsed with PBS. Cell-associated fluorescence was quantitated with the fluorescence plate reader Victor 3 (Perkin Elmer) using 485 nm excitation and 535 nm emission filters. The experiments were performed three times in triplicate."}, "HT1080 cells": {"test_system": "HT1080 cells", "assay": "Matrigel invasion kinetics, xCELLigence RTCA, HT1080", "format": "cell-based, human", "procedure": "This assay was performed using E-well plates and the xCELLigence RTCA technology as described. Bottom wells were coated with 20 µg/well matrigel diluted in serum free medium. Matrigel was allowed to polymerize for 1 hr at 37 °C prior to seeding cells (1 × 10^4 cells/well) suspended in growth medium plus/minus RI peptides. Cells that cross matrigel adhere to the bottom of plates causing impedance changes that are proportional to the number of invading cells, and are expressed as a cell index value. Matrigel invasion was monitored for 20 hr. The experiments were performed three times in quadruplicate."}, "[1]": {"test_system": "GFP-Sarc cells on HUVEC monolayer", "assay": "GFP-Sarc cell adhesion onto endothelium", "format": "cell-based, human", "settings": "10 nM", "procedure": "GFP-tagged Sarc cells were seeded on an endothelial monolayer as previously described. Briefly, sterile round glass coverslips (12 mm in diameter) were coated with 1:8 diluted matrigel (Becton Dickinson). HUVEC (5 × 10^4 cells in 200 μL/well) were seeded onto matrigel and allowed to form a monolayer for ~24 hr at 37 °C, 5% CO2 prior to seeding GFP-Sarc cells (1 × 10^4 cells/well) suspended in complete endothelial medium plus diluents or 10 nM RI-3. At the indicated times, cell-associated fluorescence was assessed by reading cells with the fluorescence plate reader. In a subset of experiments, after 2 hr, cells were stained with rhodamine-conjugated phalloidin and green fluorescent Sarc cells were identified on multiple z-series collected at 0.20 µm intervals using a confocal microscope (Carl Zeiss)."}, "GFP-tagged Sarc cells": {"test_system": "GFP-tagged Sarc cells", "assay": "Growth and spread of subcutaneous GFP-tagged Sarc tumors in nude mice", "format": "in vivo, Foxn1nu/nu female nude mice", "settings": "five mice per group", "procedure": "as §1"}},
  "note": "[ ]: non-standard residue; d: D form. Aib = CC(C)(N)C(=O)O",
  "data": [
    {"substance": "Ac-[dY][dR][Aib][dR]-NH2 (SMILES CC(=O)N[C@H](Cc1ccc(O)cc1)C(=O)N[C@H](CCCNC(=N)N)C(=O)NC(C)(C)C(=O)N[C@H](CCCNC(=N)N)C(N)=O) [RI-3]", "values": [
      {"measurement": "intra-tumoral microvessel density (CD31) vs vehicle-treated mice", "setting": "Sarc cells", "result": "a reduced microvessel density"},
      {"measurement": "treated mice in which no CTCs were detected", "setting": "Sarc cells", "result": "4/8"},
      {"measurement": "body weight vs vehicle-treated mice", "setting": "Sarc cells; eight mice", "result": "comparable"},
      {"measurement": "volume of tumors after 10 days", "setting": "Sarc cells; eight mice, vehicle 330 +/− 163", "result": "185 +/− 82 mm^3"},
      {"measurement": "circulating tumor cells in blood of CTC-positive mice", "setting": "Sarc cells; Alu Real-Time PCR, vehicle 10.04 +/− 3.7 in 8/8 mice", "result": "2.6 +/− 2.7 CTCs/mL"},
      {"measurement": "effect on binding of FITC-fMLF to RBL-2H3/ETFR cells", "setting": "FPR1", "result": "prevented binding of FITC-fMLF to RBL-2H3/ETFR cells to a similar extent as compared to fMLF as well as RERF"},
      {"measurement": "reduction of matrigel invasion (slope of cell index)", "setting": "HT1080 cells; HT1080, 10 nM, 10% FBS, 20 hr", "result": 64, "unit": "%"},
      {"measurement": "IC50", "setting": "HT1080 cells; increasing concentrations plus 10% FBS, matrigel invasion 20 hr, xCELLigence, read-out: concentration at which an overall 50% reduction of cell invasion was reached", "result": 0.01, "unit": "nM"},
      {"measurement": "reduction of cell-associated fluorescence (adhesion to endothelium)", "setting": "[1]; after 5 min", "result": 72, "unit": "%"},
      {"measurement": "reduction of cell-associated fluorescence (adhesion to endothelium)", "setting": "[1]; after 10 min", "result": 50, "unit": "%"},
      {"measurement": "reduction of cell-associated fluorescence (adhesion to endothelium)", "setting": "[1]; after 20 min", "result": 20, "unit": "%"},
      {"measurement": "reduction of cell-associated fluorescence (adhesion to endothelium)", "setting": "[1]; after 40 min", "result": 22, "unit": "%"},
      {"measurement": "changes in body weight", "setting": "GFP-tagged Sarc cells; 6 mg/Kg i.p. every day for 12 days", "result": "did not cause changes in body weight"},
      {"measurement": "lungs with GFP-positive nodules (MacroFluo)", "setting": "GFP-tagged Sarc cells; 6 mg/Kg i.p. every day for 12 days, untreated 3/5", "result": "negative"},
      {"measurement": "volume of tumors after 12 days", "setting": "GFP-tagged Sarc cells; 6 mg/Kg i.p. every day for 12 days, vehicle 678 +/− 169", "result": "381 +/− 123 mm^3"},
      {"measurement": "animals with subcutaneous GFP-positive lesions distant at least one centimeter from the primary tumors", "setting": "GFP-tagged Sarc cells; set-up experiment, 6 mg/Kg i.p. every day, sacrifice after 12 days, vehicle 4/5", "result": "2/5"}
    ]}
  ]
}
